Measured values reported in ChEMBL document CHEMBL5303304, “EUbOPEN Chemogenomics Library - IncuCyte” (2023).

Key:
Assay type in all cases: toxicity, cell-based
HEK-293T = experiment: Incucyte cell viability with HEK293T; conditions: human, 10 µM, compound concentration 10 uM
Fibroblast = experiment: Incucyte cell viability with human fibroblast; conditions: 10 µM, compound concentration 10 uM
U2OS = experiment: Incucyte cell viability with U2OS; conditions: human, 10 µM, compound concentration 10 uM
Note: unitless GR value; below 1 slowed growth and below 0 cell loss.

| Compound | Growth Rate (HEK-293T; 0 h, replicate number 2) | Growth Rate (Fibroblast; 6 h, replicate number 1) | Growth Rate (U2OS; 0 h, replicate number 1) | Growth Rate (U2OS; 0 h, replicate number 2) | Growth Rate (U2OS; 12 h, replicate number 1) | Growth Rate (U2OS; 12 h, replicate number 2) | Growth Rate (U2OS; 18 h, replicate number 1) | Growth Rate (U2OS; 18 h, replicate number 2) | Growth Rate (U2OS; 24 h, replicate number 1) | Growth Rate (U2OS; 24 h, replicate number 2) | Growth Rate (HEK-293T; 6 h, replicate number 1) | Growth Rate (HEK-293T; 6 h, replicate number 2) | Growth Rate (HEK-293T; 12 h, replicate number 1) | Growth Rate (HEK-293T; 12 h, replicate number 2) | Growth Rate (HEK-293T; 18 h, replicate number 1) | Growth Rate (HEK-293T; 24 h, replicate number 1) | Growth Rate (HEK-293T; 24 h, replicate number 2) | Growth Rate (Fibroblast; 12 h, replicate number 1) | Growth Rate (Fibroblast; 12 h, replicate number 2) | Growth Rate (Fibroblast; 18 h, replicate number 1) | further results |
| --- | --- | --- | --- | --- | --- | --- | --- | --- | --- | --- | --- | --- | --- | --- | --- | --- | --- | --- | --- | --- | --- |
| O=C1N=C(NCc2cccs2)S/C1=C\c1ccc2ncccc2c1 | -0.64 | 0.04 | 0.58 | -0.23 | -0.76 | 0.57 | 0.78 | 0.67 | 0.64 | 0.78 |  |  |  |  |  |  |  |  |  |  | Growth Rate (HEK-293T; 0 h, replicate number 1): -0.36; Growth Rate (Fibroblast; 0 h, replicate number 1): -0.1 |
| COc1cc(Cl)c(C(=O)N[C@@H](CN[C@H]2CC[C@@H](N)CC2)Cc2ccc(C#N)cc2)cc1-c1ccc(CN[C@H](C)c2ccc(C)cc2)o1 | -1 | -0.93 | -1 | -0.99 | -0.87 | -0.86 | -0.77 | -0.78 | -0.74 | -0.76 | -0.6 | -0.61 | -0.61 | -0.53 | -0.48 | -0.42 | -0.4 | -0.8 | -0.82 | -0.76 | Growth Rate (Fibroblast; 6 h, replicate number 2): -0.83; Growth Rate (Fibroblast; 18 h, replicate number 2): -0.74; Growth Rate (Fibroblast; 24 h, replicate number 1): -0.72; Growth Rate (Fibroblast; 24 h, replicate number 2): -0.68; Growth Rate (U2OS; 6 h, replicate number 1): -0.95; Growth Rate (U2OS; 6 h, replicate number 2): -0.91 |
| c1ccc2c(-c3coc4cc(-c5ccc(N6CCNCC6)cc5)cnc34)ccnc2c1 | -1 |  |  | 0.9 | 0.59 | -0.36 | 0.14 | -0.38 | -0.05 | -0.46 | -0.57 | -0.5 | -0.52 | -0.56 | -0.42 | -0.3 | -0.33 | 0.93 | 0.61 | 0.29 | Growth Rate (HEK-293T; 18 h, replicate number 2): -0.43; Growth Rate (Fibroblast; 0 h, replicate number 1): 0.87; Growth Rate (Fibroblast; 18 h, replicate number 2): 0.28; Growth Rate (Fibroblast; 24 h, replicate number 1): 0.1; Growth Rate (Fibroblast; 24 h, replicate number 2): 0.11; Growth Rate (U2OS; 6 h, replicate number 2): 0 |
| O=C1COc2cc(C(=O)N(Cc3ccc(C(=O)Nc4ccncn4)cc3)C3CC3)ccc2N1 | -0.63 | 0.36 | -0.53 | 0.72 | 0.37 | 0.8 | 0.61 | 0.77 | 0.73 | 0.87 | 0.38 | 0.01 | 0.74 | 0.42 | 0.75 | 0.95 | 0.72 | 0.28 | 0.88 | 0.54 | Growth Rate (HEK-293T; 18 h, replicate number 2): 0.66; Growth Rate (Fibroblast; 6 h, replicate number 2): 0.55; Growth Rate (Fibroblast; 18 h, replicate number 2): 0.79; Growth Rate (Fibroblast; 24 h, replicate number 1): 0.74; Growth Rate (Fibroblast; 24 h, replicate number 2): 0.98; Growth Rate (U2OS; 6 h, replicate number 1): 0.39; Growth Rate (U2OS; 6 h, replicate number 2): 0.77 |
| CC1(C)C(=O)N([C@H]2CCc3c(O)cccc32)c2nc(Nc3cccc(CN4CCCC4)c3)ncc21 | -1 | -0.49 | -0.88 | 0.2 | 0.05 | -0.3 | -0.08 | -0.3 | -0.27 | -0.38 | -0.69 | -0.56 | -0.53 | -0.41 | -0.36 | -0.28 | -0.32 | -0.4 | -0.57 | -0.44 | Growth Rate (HEK-293T; 18 h, replicate number 2): -0.35; Growth Rate (Fibroblast; 6 h, replicate number 2): -0.63; Growth Rate (Fibroblast; 18 h, replicate number 2): -0.52; Growth Rate (Fibroblast; 24 h, replicate number 1): -0.42; Growth Rate (Fibroblast; 24 h, replicate number 2): -0.52; Growth Rate (U2OS; 6 h, replicate number 1): 0.38; Growth Rate (U2OS; 6 h, replicate number 2): -0.15 |
